Experimental data: patent US7595401B2, “Therapeutic compounds and their use in cancer” (Myriad Pharmaceuticals, Inc., priority 2006, dated 2009)

tested on: Luciferase refolding; experiment: Luciferase refolding assay; format: biochemical; parameters: key: *Compound is active in Luciferase refolding assay; settings: compound fluorescent in FP binding assay

active in Luciferase refolding assay (asterisk footnote)	SMILES
*Fluorescent	COc1ccc(OC)c(Sc2nc3c(N)ncnc3n2CCC(NC(=O)OC(C)(C)C)C2CC2)c1 (centres unmarked) [Example 664, tert-Butyl(3-{6-amino-8-[(2,5-dimethoxyphenyl)thio]-9H-purin-9-yl}-1-cyclopropylpropyl)carbamate]
*Fluorescent	CC(C)(C)OC(=O)N1CCOC(CCn2cnc(N)c3nc(Sc4cc5c(cc4Br)OCO5)nc2-3)C1 (centres unmarked) [Example 368, tert-Butyl 2-(2-{6-amino-8-[(6-bromo-1,3-benzodioxol-5-yl)thio]-3H-purin-3-yl}ethyl)morpholine-4-carboxylate]
*Fluorescent	CC(C)NC(=O)NC(CCn1c(Sc2cc3c(cc2Br)OCO3)nc2c(N)ncnc21)C1CC1 (centres unmarked) [Example 678, N-(3-{6-Amino-8-[(6-bromo-1,3-benzodioxol-5-yl)thio]-9H-purin-9-yl}-1-cyclopropylpropyl)-N′-isopropylurea]

SMILES	active in Luciferase refolding assay (asterisk footnote)
Nc1ncn(CCC2(F)C(F)(F)C(F)(F)C(F)(F)C(F)(F)C2(F)F)c2nc(Sc3cc4c(cc3Br)OCO4)nc1-2 [Example 377, 8-[(6-Bromo-1,3-benzodioxol-5-yl)thio]-3-[2-(undecafluorocyclohexyl)ethyl]-3H-purin-6-amine]	*Fluorescent

tested on: purified human Hsp90; experiment: Binding Assay: fluorescence polarization with BODIPY-labeled geldanamycin; settings: 5 μM compound, BODIPY-GM 10 nM, Hsp90 30 nM
Method in brief: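 Compounds in 2% DMSO final compete with 10 nM BODIPY-GM for 30 nM purified human Hsp90, incubated overnight at room temperature in pH 7.3 HEPES buffer containing Na2MoO4 and DTT. Polarization (mP, ex/em 485/530) normalized to DMSO gives percent inhibition; autofluorescence-confounded data excluded.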

% Inhibition at 5 μM Compound Concentration	SMILES
9%	Nc1ncn(CCC2CCNCC2)c2nc(Sc3cc4c(cc3Br)OCO4)nc1-2 [Example 468, 8-[(6-Bromo-1,3-benzodioxol-5-yl)thio]-3-(2-piperidin-4-ylethyl)-3 H-purin-6-amine]
75%	Nc1ncnc2c1nc(Sc1ccc3c(c1)OCO3)n2CCc1ccccc1 [Example 4, 8-(Benzo[1,3]dioxol-5-ylsulfanyl)-9-phenethyl-9H-purin-6-ylamine]
23.00%	CCC(CC)N1CCN(CCn2cnc(N)c3nc(Sc4cc(OC)ccc4OC)nc2-3)CC1 [Example 628, 8-[(2,5-Dimethoxyphenyl)thio]-3-{2-[4-(1-ethylpropyl)piperazin-1-yl]ethyl}-3 H-purin-6-amine]
13%	Nc1ncn(CCc2ccccc2Cl)c2nc(Sc3cc4c(cc3Br)OCO4)nc1-2 [Example 54, 8-(6-bromo-benzo[1,3]dioxol-5-ylsulfanyl)-3-[2-(2-chloro-phenyl)-ethyl]-3H-purin-6-ylamine]
18%	COc1ccc(OC)c(Sc2nc3c(N)ncn(CCc4cccs4)c-3n2)c1 [Example 200, 8-(2,5-dimethoxy-phenylsulfanyl)-3-(2-thiophen-2-yl-ethyl)-3H-purin-6-ylamine]
>10%	COc1ccc(OC)c(Sc2nc3c(N)ncn(CC(c4ccccc4)C4CCCCC4)c-3n2)c1 (centres unmarked) [Example 180, 3-(2-cyclohexyl-2-phenyl-ethyl)-8-(2,5-dimethoxy-phenylsulfanyl)-3H-purin-6-ylamine]

same assay, conditions: BODIPY-GM 10 nM, Hsp90 30 nM

IC50	SMILES
0.405 µM	COC(=O)[C@H](CCSC)NC(=O)N1CCCC(CCn2c(Sc3cc4c(cc3Br)OCO4)nc3c(N)ncnc32)C1 (stereo partly drawn) [Example 507, Methyl N-{[3-(2-{6-amino-8-[(6-bromo-1,3-benzodioxol-5-yl)thio]-9 H-purin-9-yl}ethyl)piperidin-1-yl]carbonyl}-L-methioninate]
5 µM	Nc1ncn(CCc2ccccc2)c2nc(Sc3cc4c(cc3Br)OCO4)nc1-2 [Example 14, 8-(6-bromo-benzo[1,3]dioxol-5-ylsulfanyl)-3-phenethyl-3H-purin-6-ylamine]
0.5 µM	COc1ccc(OC)c(Sc2nc3c(N)ncnc3n2CCc2cccc([N+](=O)[O-])c2)c1 [Example 223, 8-(2,5-Dimethoxy-phenylsulfanyl)-9-[2-(3-nitro-phenyl)-ethyl]-9H-purin-6-ylamine]
> 10 µM	COc1ccc(OC)c(Sc2nc3c(N)ncn(CCc4ccc(OC)c(OC)c4)c-3n2)c1 [Example 22, 3-[2-(3,4-dimethoxy-phenyl)-ethyl]-8-(2,5-dimethoxy-phenylsulfanyl)-3H-purin-6-ylamine]
> 10 µM	COc1ccc(OC)c(Sc2nc3c(N)ncnc3n2CCc2cc(OC)c(OC)c(OC)c2)c1 [Example 89, 8-(2,5-Dimethoxy-phenylsulfanyl)-9-[2-(3,4,5-trimethoxy-phenyl)-ethyl]-9H-purin-6-ylamine]
> 25 µM	COc1ccc(C2(Cn3c(Sc4cc5c(cc4Br)OCO5)nc4c(N)ncnc43)CC2)cc1 [Example 59, 8-(6-Bromo-benzo[1,3]dioxol-5-ylsulfanyl)-9-[1-(4-methoxy-phenyl)-cyclopropylmethyl]-9H-purin-6-ylamine]
> 10 µM	COc1ccc(OC)c(Sc2nc3c(N)ncnc3n2CCc2ccc(C)cc2)c1 [Example 23, 8-(2,5-Dimethoxy-phenylsulfanyl)-9-(2-p-tolyl-ethyl)-9H-purin-6-ylamine]
0.65 µM	Nc1ncnc2c1nc(Sc1ccc3c(c1)OCO3)n2CCc1ccccc1 [Example 4, 8-(Benzo[1,3]dioxol-5-ylsulfanyl)-9-phenethyl-9H-purin-6-ylamine]
2.3 µM	COc1ccc(OC)c(Sc2nc3c(N)ncnc3n2CCNC(C)(C)c2ccccn2)c1 [Example 334, 8-[(2,5-Dimethoxyphenyl)thio]-9-{2-[(1-methyl-1-pyridin-2-ylethyl)amino]ethyl}-9H-purin-6-amine]
> 5 µM	COc1cc(Br)c(Sc2nc3c(N)ncnc3n2CCC2CCN(C(C)=O)CC2)cc1OC [Example 565, 9-[2-(1-Acetylpiperidin-4-yl)ethyl]-8-[(2-bromo-4,5-dimethoxyphenyl)thio]-9 H-purin-6-]
> 3 µM	Nc1ncnc2c1nc(Sc1cc3c(cc1Br)OCO3)n2CC1(c2ccc(Cl)cc2)CCC1 [Example 95, 8-(6-Bromo-benzo[1,3]dioxol-5-ylsulfanyl)-9-[1-(4-chloro-phenyl)-cyclobutylmethyl]-9H-purin-6-ylamine]
19 µM	COc1ccc(OC)c(Sc2nc3c(N)ncnc3n2CCC2CCN(C(=O)OC(C)(C)C)CC2)c1 [Example 342, tert-Butyl 4-(2-{6-amino-8-[(2,5-dimethoxyphenyl)thio]-9H-purin-9-yl}ethyl)piperidine-1-carboxylate]

SMILES	IC50
COc1ccc(OC)c(Sc2nc3c(N)ncnc3n2CCN2CCN(C(C)C)CC2)c1 [Example 493, 8-[(2,5-Dimethoxyphenyl)thio]-9-[2-(4-isopropylpiperazin-1-yl)ethyl]-9 H-purin-6-amine]	8.9 µM
